Data taken from US8247211B2, “Glycopeptide antibiotics” (American Cyanamid Company, priority 2001, dated 2012).
Values after ≈ are worked out from the molar mass of the structure shown.

Key:
Assay in all cases: In vitro antibacterial evaluation: minimum inhibitory concentration (MIC), broth dilution method
Assay type in all cases: cell-based
Staphylococcus sp. = settings: for MIC Staphylococcus aureus (ATCC 29213): strain ATCC 29213; for MIC Staphylococcus aureus (GC 1131): strain GC 1131; for MIC Staphylococcus aureus (GC 3051): strain GC 3051; for MIC Staphylococcus aureus (GC 3053): strain GC 3053; for MIC Staphylococcus aureus (GC 4541): strain GC 4541; for MIC Staphylococcus aureus (GC 4542): strain GC 4542; for MIC Staphylococcus aureus-SMITH (GC 4543): strain GC 4543; for MIC Staphylococcus aureus (GC 4544): strain GC 4544; for MIC Staphylococcus aureus (GC 4545): strain GC 4545; for MIC Staphylococcus haemolyticus (GC 4546): strain GC 4546; for MIC Coagulase Negative Staphylococcus (GC 4547): strain GC 4547; for MIC Coagulase Negative Staphylococcus (GC 4548): strain GC 4548; for MIC Coagulase Negative Staphylococcus (GC 4549): strain GC 4549; for MIC Coagulase Negative Staphylococcus (GC 4551): strain GC 4551; for MIC Coagulase Negative Staphylococcus (GC 6257): strain GC 6257
Procedure, shortened: (§1)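 Susceptibility determined by NCCLS-recommended broth dilution (M7-A2), Muller-Hinton II […]. Concentration span 64-0.06 μg/mL, inoculum 5×10^5 CFU/mL. Isolates include strains resistant to methicillin, penicillin and/or vancomycin.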

Escherichia coli = settings: 18 hours at 35° C.
Procedure, shortened: as §1

Streptococcus sp. = settings: 18 hours at 35° C.
Procedure, shortened: as §1

Enterococcus sp. = settings: 18 hours at 35° C.
Procedure, shortened: as §1

[1] = Streptococcus agalactiae (GC 4564)
[2] = Streptococcus pneumoniae (ATCC 6301)
[3] = Streptococcus pneumoniae (GC 1894)
[4] = Streptococcus pneumoniae (GC 4565)
[5] = Streptococcus pyogenes (GC 4563)
[6] = broth dilution, inoculum 5×10^5 CFU/mL
[7] = Enterococcus faecalis (ATCC 29212)
[8] = Enterococcus faecalis (GC 2242)
[9] = Enterococcus faecalis (GC 2691)
[10] = Enterococcus faecalis (GC 3059)
[11] = Enterococcus faecalis (GC 4552)
[12] = Enterococcus faecalis (GC 4553)
[13] = Enterococcus faecalis (GC 4554)
[14] = Enterococcus faecalis (GC 6189)

## CC(c1ccccc1)C1NC(=O)CNC(=O)C(CO)NC(=O)C(C(O)C2CNC(=N)N2C2OC(CO)C(O)C(O)C2O)NC(=O)C(C(O)C2CNC(=N)N2)NC(=O)C(Cc2ccc(OC3OC(CO)C(OC4OC5COC(c6ccccc6)OC5C(O)C4O)C(O)C3O)c(I)c2)NC1=O (stereo not drawn) [Example 196, Cyclo[glycyl-β-methylphenylalanyl-O-[4-O-(4,6-O-benzylidenehexopyranosyl)hexopyranosyl]-3-iodotyrosyl-3-(2-iminoimidazolidin-4-yl)seryl-3-(3-hexopyranosyl-2-iminoimidazolidin-4-yl)-serylseryl]]
Staphylococcus sp.
  MIC Staphylococcus aureus (ATCC 29213): >64 µg/mL
  MIC Staphylococcus aureus (GC 1131): >64 µg/mL
  MIC Staphylococcus aureus (GC 3051): >64 µg/mL
  MIC Staphylococcus aureus (GC 3053): >64 µg/mL
  MIC Staphylococcus aureus (GC 4541): 64 µg/mL (≈ 42.4 µM)
  MIC Staphylococcus aureus (GC 4542): >64 µg/mL
  MIC Staphylococcus aureus-SMITH (GC 4543): >64 µg/mL
  MIC Staphylococcus aureus (GC 4544): >64 µg/mL
  MIC Staphylococcus aureus (GC 4545): 64 µg/mL (≈ 42.4 µM)
  MIC Staphylococcus haemolyticus (GC 4546): 32 µg/mL (≈ 21.2 µM)
  MIC Coagulase Negative Staphylococcus (GC 4547): 32 µg/mL (≈ 21.2 µM)
  MIC Coagulase Negative Staphylococcus (GC 4548): 64 µg/mL (≈ 42.4 µM)
  MIC Coagulase Negative Staphylococcus (GC 4549): 64 µg/mL (≈ 42.4 µM)
  MIC Coagulase Negative Staphylococcus (GC 4551): >64 µg/mL
  MIC Coagulase Negative Staphylococcus (GC 6257): 64 µg/mL (≈ 42.4 µM)
Escherichia coli
  MIC Escherichia coli (ATCC 25922): 64 µg/mL (≈ 42.4 µM)
  MIC Escherichia coli (GC 4559): 64 µg/mL (≈ 42.4 µM)
  MIC Escherichia coli (GC 4560): 8 µg/mL (≈ 5.3 µM)
Streptococcus sp.; [1]
  MIC Streptococcus agalactiae (GC 4564): >64 µg/mL
Streptococcus sp.; [2]
  MIC Streptococcus pneumoniae (ATCC 6301): 64 µg/mL (≈ 42.4 µM)
Streptococcus sp.; [3]
  MIC Streptococcus pneumoniae (GC 1894): 64 µg/mL (≈ 42.4 µM)
Streptococcus sp.; [4]
  MIC Streptococcus pneumoniae (GC 4565): 64 µg/mL (≈ 42.4 µM)
Streptococcus sp.; [5]
  MIC Streptococcus pyogenes (GC 4563): 32 µg/mL (≈ 21.2 µM)
Streptococcus sp.; [6]
  MIC Streptococcus agalactiae (GC 4564): >64 µg/mL
  MIC Streptococcus pneumoniae (ATCC 6301): 64 µg/mL (≈ 42.4 µM)
  MIC Streptococcus pneumoniae (GC 1894): 64 µg/mL (≈ 42.4 µM)
  MIC Streptococcus pneumoniae (GC 4565): 64 µg/mL (≈ 42.4 µM)
  MIC Streptococcus pyogenes (GC 4563): 32 µg/mL (≈ 21.2 µM)
Enterococcus sp.; Enterococcus avium (GC 4558)
  MIC Enterococcus avium (GC 4558): 32 µg/mL (≈ 21.2 µM)
Enterococcus sp.; [7]
  MIC Enterococcus faecalis (ATCC 29212): >64 µg/mL
Enterococcus sp.; [8]
  MIC Enterococcus faecalis (GC 2242): >64 µg/mL
Enterococcus sp.; [9]
  MIC Enterococcus faecalis (GC 2691): >64 µg/mL
Enterococcus sp.; [10]
  MIC Enterococcus faecalis (GC 3059): >64 µg/mL
Enterococcus sp.; [11]
  MIC Enterococcus faecalis (GC 4552): >64 µg/mL
Enterococcus sp.; [12]
  MIC Enterococcus faecalis (GC 4553): 64 µg/mL (≈ 42.4 µM)
Enterococcus sp.; [13]
  MIC Enterococcus faecalis (GC 4554): >64 µg/mL
Enterococcus sp.; [14]
  MIC Enterococcus faecalis (GC 6189): >64 µg/mL
Enterococcus sp.; Enterococcus faecium (GC 2243)
  MIC Enterococcus faecium (GC 2243): 64 µg/mL (≈ 42.4 µM)
Enterococcus sp.; Enterococcus faecium (GC 4556)
  MIC Enterococcus faecium (GC 4556): >64 µg/mL
Enterococcus sp.; Enterococcus faecium (GC 4557)
  MIC Enterococcus faecium (GC 4557): 8 µg/mL (≈ 5.3 µM)
Enterococcus sp.; [6]
  MIC Enterococcus avium (GC 4558): 32 µg/mL (≈ 21.2 µM)
  MIC Enterococcus faecalis (ATCC 29212): >64 µg/mL
  MIC Enterococcus faecalis (GC 2242): >64 µg/mL
  MIC Enterococcus faecalis (GC 2691): >64 µg/mL
  MIC Enterococcus faecalis (GC 3059): >64 µg/mL
  MIC Enterococcus faecalis (GC 4552): >64 µg/mL
  MIC Enterococcus faecalis (GC 4553): 64 µg/mL (≈ 42.4 µM)
  MIC Enterococcus faecalis (GC 4554): >64 µg/mL
  MIC Enterococcus faecalis (GC 6189): >64 µg/mL
  MIC Enterococcus faecium (GC 2243): 64 µg/mL (≈ 42.4 µM)
  MIC Enterococcus faecium (GC 4556): >64 µg/mL
  MIC Enterococcus faecium (GC 4557): 8 µg/mL (≈ 5.3 µM)

## Cc1ccc(Oc2cccc(C3OCC4OC(OC5C(CO)OC(Oc6ccc(CC7NC(=O)C(C(C)c8ccccc8)NC(=O)CNC(=O)C(CO)NC(=O)C(C(O)C8CNC(=N)N8C8OC(CO)C(O)C(O)C8O)NC(=O)C(C(O)C8CNC(=N)N8)NC7=O)cc6I)C(O)C5O)C(O)C(O)C4O3)c2)cc1 (centres unmarked) [Example 197]
Staphylococcus sp.
  MIC Staphylococcus aureus (ATCC 29213): 32 µg/mL (≈ 19.8 µM)
  MIC Staphylococcus aureus (GC 1131): 16 µg/mL (≈ 9.9 µM)
  MIC Staphylococcus aureus (GC 3051): 64 µg/mL (≈ 39.6 µM)
  MIC Staphylococcus aureus (GC 3053): 64 µg/mL (≈ 39.6 µM)
  MIC Staphylococcus aureus (GC 4541): 16 µg/mL (≈ 9.9 µM)
  MIC Staphylococcus aureus (GC 4542): 64 µg/mL (≈ 39.6 µM)
  MIC Staphylococcus aureus-SMITH (GC 4543): 16 µg/mL (≈ 9.9 µM)
  MIC Staphylococcus aureus (GC 4544): 32 µg/mL (≈ 19.8 µM)
  MIC Staphylococcus aureus (GC 4545): 32 µg/mL (≈ 19.8 µM)
  MIC Staphylococcus haemolyticus (GC 4546): 32 µg/mL (≈ 19.8 µM)
  MIC Coagulase Negative Staphylococcus (GC 4547): 32 µg/mL (≈ 19.8 µM)
  MIC Coagulase Negative Staphylococcus (GC 4548): 8 µg/mL (≈ 4.95 µM)
  MIC Coagulase Negative Staphylococcus (GC 4549): 8 µg/mL (≈ 4.95 µM)
  MIC Coagulase Negative Staphylococcus (GC 4551): 16 µg/mL (≈ 9.9 µM)
  MIC Coagulase Negative Staphylococcus (GC 6257): 4 µg/mL (≈ 2.48 µM)
Escherichia coli
  MIC Escherichia coli (ATCC 25922): 32 µg/mL (≈ 19.8 µM)
  MIC Escherichia coli (GC 4559): 64 µg/mL (≈ 39.6 µM)
  MIC Escherichia coli (GC 4560): 16 µg/mL (≈ 9.9 µM)
Streptococcus sp.; [1]
  MIC Streptococcus agalactiae (GC 4564): 16 µg/mL (≈ 9.9 µM)
Streptococcus sp.; [2]
  MIC Streptococcus pneumoniae (ATCC 6301): 4 µg/mL (≈ 2.48 µM)
Streptococcus sp.; [3]
  MIC Streptococcus pneumoniae (GC 1894): 8 µg/mL (≈ 4.95 µM)
Streptococcus sp.; [4]
  MIC Streptococcus pneumoniae (GC 4565): 8 µg/mL (≈ 4.95 µM)
Streptococcus sp.; [5]
  MIC Streptococcus pyogenes (GC 4563): 16 µg/mL (≈ 9.9 µM)
Streptococcus sp.; [6]
  MIC Streptococcus agalactiae (GC 4564): 16 µg/mL (≈ 9.9 µM)
  MIC Streptococcus pneumoniae (ATCC 6301): 4 µg/mL (≈ 2.48 µM)
  MIC Streptococcus pneumoniae (GC 1894): 8 µg/mL (≈ 4.95 µM)
  MIC Streptococcus pneumoniae (GC 4565): 8 µg/mL (≈ 4.95 µM)
  MIC Streptococcus pyogenes (GC 4563): 16 µg/mL (≈ 9.9 µM)
Enterococcus sp.; Enterococcus avium (GC 4558)
  MIC Enterococcus avium (GC 4558): 16 µg/mL (≈ 9.9 µM)
Enterococcus sp.; [7]
  MIC Enterococcus faecalis (ATCC 29212): >64 µg/mL
Enterococcus sp.; [8]
  MIC Enterococcus faecalis (GC 2242): >64 µg/mL
Enterococcus sp.; [9]
  MIC Enterococcus faecalis (GC 2691): >64 µg/mL
Enterococcus sp.; [10]
  MIC Enterococcus faecalis (GC 3059): >64 µg/mL
Enterococcus sp.; [11]
  MIC Enterococcus faecalis (GC 4552): >64 µg/mL
Enterococcus sp.; [12]
  MIC Enterococcus faecalis (GC 4553): 64 µg/mL (≈ 39.6 µM)
Enterococcus sp.; [13]
  MIC Enterococcus faecalis (GC 4554): >64 µg/mL
Enterococcus sp.; [14]
  MIC Enterococcus faecalis (GC 6189): 64 µg/mL (≈ 39.6 µM)
Enterococcus sp.; Enterococcus faecium (GC 2243)
  MIC Enterococcus faecium (GC 2243): 64 µg/mL (≈ 39.6 µM)
Enterococcus sp.; Enterococcus faecium (GC 4556)
  MIC Enterococcus faecium (GC 4556): >64 µg/mL
Enterococcus sp.; Enterococcus faecium (GC 4557)
  MIC Enterococcus faecium (GC 4557): 8 µg/mL (≈ 4.95 µM)
Enterococcus sp.; [6]
  MIC Enterococcus avium (GC 4558): 16 µg/mL (≈ 9.9 µM)
  MIC Enterococcus faecalis (ATCC 29212): >64 µg/mL
  MIC Enterococcus faecalis (GC 2242): >64 µg/mL
  MIC Enterococcus faecalis (GC 2691): >64 µg/mL
  MIC Enterococcus faecalis (GC 3059): >64 µg/mL
  MIC Enterococcus faecalis (GC 4552): >64 µg/mL
  MIC Enterococcus faecalis (GC 4553): 64 µg/mL (≈ 39.6 µM)
  MIC Enterococcus faecalis (GC 4554): >64 µg/mL
  MIC Enterococcus faecalis (GC 6189): 64 µg/mL (≈ 39.6 µM)
  MIC Enterococcus faecium (GC 2243): 64 µg/mL (≈ 39.6 µM)
  MIC Enterococcus faecium (GC 4556): >64 µg/mL
  MIC Enterococcus faecium (GC 4557): 8 µg/mL (≈ 4.95 µM)
